Measurements from PMC11642016 (International Journal of Molecular Sciences, 2024).

Key:
Fadu cells = experiment: CellTiter-Glo luminescent cell viability assay, Fadu; settings: 72 h, 72 h, first-set screening, mean ± SD, n = 2; for viability at 2.8 µM / viability at 8.3 µM / viability at 25 µM: Homo sapiens, FaDu; for viability at 2.8 µM: read-out: Cell Viability (% of Control) 2.8 µM, Fadu; for viability at 8.3 µM: read-out: Cell Viability (% of Control) 8.3 µM, Fadu; for viability at 25 µM: read-out: Cell Viability (% of Control) 25 µM, Fadu; for Cell Viability (% of Control) 2.8 µM / Cell Viability (% of Control) 8.3 µM / Cell Viability (% of Control) 25 µM: Fadu
PANC-1 cells = experiment: CellTiter-Glo luminescent cell viability assay, PANC-1; settings: 72 h, first-set screening, mean ± SD, n = 2; for viability at 2.8 µM / viability at 8.3 µM / viability at 25 µM: Homo sapiens, PANC-1, 72 h; for viability at 2.8 µM: read-out: Cell Viability (% of Control) 2.8 µM, PANC-1; for viability at 8.3 µM: read-out: Cell Viability (% of Control) 8.3 µM, PANC-1; for viability at 25 µM: read-out: Cell Viability (% of Control) 25 µM, PANC-1; for Cell Viability (% of Control) 2.8 µM / Cell Viability (% of Control) 8.3 µM / Cell Viability (% of Control) 25 µM: PANC-1

Row | SMILES | viability at 2.8 µM (Fadu cells) | viability at 8.3 µM (Fadu cells) | viability at 25 µM (Fadu cells) | viability at 2.8 µM (PANC-1 cells) | viability at 8.3 µM (PANC-1 cells) | viability at 25 µM (PANC-1 cells) | Cell Viability (% of Control) 2.8 µM (Fadu cells) | Cell Viability (% of Control) 8.3 µM (Fadu cells) | Cell Viability (% of Control) 25 µM (Fadu cells) | Cell Viability (% of Control) 2.8 µM (PANC-1 cells) | Cell Viability (% of Control) 8.3 µM (PANC-1 cells) | Cell Viability (% of Control) 25 µM (PANC-1 cells)
1 | NCC#Cc1ccc(CN2C(=O)C3=C(CCN(Cc4ccc(-n5cc(-c6cccc(N)c6)nn5)cc4)C3)N3CCN=C23)cc1 [1a] | 106 ± 2% | 99 ± 2% | 10% | 100 ± 5% | 93 ± 7% | 3 ± 2% | – | – | – | – | – | –
2 | O=C1C2=C(CCN(Cc3ccc(-n4cc(-[c-]5cccc5)nn4)cc3)C2)N2CCN=C2N1Cc1ccc(C#CCO)cc1.[Fe+2].c1cc[cH-]c1 [1b] | – | – | – | – | – | – | 88 ± 4 % of Control | 83 ± 0 % of Control | 68 ± 3 % of Control | 92 ± 0 % of Control | 93 ± 3 % of Control | 95 ± 2 % of Control
3 | O=C1C2=C(CCN(Cc3ccc(-n4cc(-c5ccccc5)nn4)cc3)C2)N2CCN=C2N1Cc1ccc(C#CCO)cc1 [1c] | 79% | 71% | 64 ± 2% | 95 ± 3% | 87 ± 2% | 88 ± 6% | – | – | – | – | – | –
4 | Nc1cccc(-c2cn(-c3ccc(CN4CCC5=C(C4)C(=O)N(Cc4ccc(C#CCO)cc4)C4=NCCN45)cc3)nn2)c1 [1d] | 99 ± 9% | 96 ± 7% | 84 ± 4% | 99 ± 3% | 101 ± 3% | 100 ± 5% | – | – | – | – | – | –
5 | C=CC(=O)Nc1cccc(-c2cn(-c3ccc(CN4CCC5=C(C4)C(=O)N(Cc4ccc(C#CCN)cc4)C4=NCCN45)cc3)nn2)c1 [1e] | 96 ± 6% | 59 ± 4% | 69 ± 2% | 101 ± 7% | 91 ± 1% | 102% | – | – | – | – | – | –
6 | O=C1C2=C(CCN(Cc3ccc(-n4cc(-[c-]5cccc5)nn4)cc3)C2)N2CCN=C2N1Cc1cccc(C#CCO)c1.[Fe+2].c1cc[cH-]c1 [2c] | – | – | – | – | – | – | 79 ± 2 % of Control | 76 ± 4 % of Control | 65 ± 0 % of Control | 94 ± 2 % of Control | 95 ± 2 % of Control | 97 ± 2 % of Control
7 | O=C1C2=C(CCN(Cc3ccc(-n4cc(-c5ccccc5)nn4)cc3)C2)N2CCN=C2N1Cc1cccc(C#CCO)c1 [2d] | 99 ± 7% | 90 ± 10% | 78 ± 6% | 100 ± 8% | 87 ± 1% | 81% | – | – | – | – | – | –
8 | NCC#Cc1ccc(CN2C(=O)C3=C(CCN(Cc4cccc(-n5cc(-[c-]6cccc6)nn5)c4)C3)N3CCN=C23)cc1.[Fe+2].c1cc[cH-]c1 [3a] | – | – | – | – | – | – | 104 ± 5 % of Control | 100 ± 6 % of Control | 0 ± 0 % of Control | 101 ± 7 % of Control | 88 ± 0 % of Control | 0 ± 0 % of Control
9 | O=C1C2=C(CCN(Cc3cccc(-n4cc(-[c-]5cccc5)nn4)c3)C2)N2CCN=C2N1Cc1ccc(C#CCO)cc1.[Fe+2].c1cc[cH-]c1 [3c] | – | – | – | – | – | – | 103 ± 9 % of Control | 99 ± 2 % of Control | 85 ± 5 % of Control | 100 ± 3 % of Control | 98 ± 1 % of Control | 98 ± 1 % of Control
10 | O=C1C2=C(CCN(Cc3cccc(-n4cc(-c5ccccc5)nn4)c3)C2)N2CCN=C2N1Cc1ccc(C#CCO)cc1 [3d] | 87 ± 1% | 29 ± 2% | 23 ± 3% | 85 ± 1% | 55 ± 6% | 46 ± 7% | – | – | – | – | – | –
